Molecules are shown by their SMILES. Like-named read-outs stand apart in the source and are kept apart here. Where only a bound is given, the exact number is not on record here.

The target in experiment [1] is LSD1 (Homo sapiens, UniProt O60341). Briefly: LSD1 10-dose IC50 fluorescence coupling enzyme assay (HRP/Amplex Red, resorufin). To be noted: 10 M histone H3(1-21)K4me2 peptide substrate; 3-fold serial dilution in duplicate starting at 100 μM. It is filed as biochemical. Here is the method:
Compounds were tested in a 10-dose IC50 mode fluorescence coupling enzyme assay with 3-fold serial dilution in duplicate starting at 100 μM. The production of FAD-dependent H2O2 as a result of demethylase activity of LSD1 on […] histone H3(1-21)K4me2 peptide substrate was measured by coupling with HRP and Amplex Red to yield resorufin (fluorescence measured at Ex/Em=535/590 nm on EnVision, Perkin Elmer).

In experiment [2] the test system is MV4;11 cells. Briefly: Cell Titer-Glo Luminescent Cell Viability Assay, cell growth inhibition against MV4;11 cells. Conditions: Homo sapiens. It counts as cell-based. The method, boiled down:
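MV4;11 cells seeded at 3750/well, exposed to a 10-point 4-fold dilution series (0–50 μM); on Day 5 cells were split into fresh compound and media and grown to Day 10. Viability by CellTiter-Glo ATP luminescence at Day 5 and Day 10; IC50 from dose curves.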

The mark [3] stands for this setting: MV4-11, MV4;11 cells, Day 10 (re-seeded at Day 5 with fresh compound), 10-point dose curve 0 to 50 μM, read-out: Cell Titer Glo IC50 (10 d).
The mark [4] stands for this setting: MV4-11, 120 h, MV4;11 cells, Day 5, 10-point dose curve 0 to 50 μM, read-out: Cell Titer Glo IC50 (5 d).

The IC50 is the concentration that inhibits the measured activity by half. Regarding `CC1(O)CCN(c2ccc(-n3nc(C(=O)N4CCC[C@@H](N)C4)cc3-c3ccc(C#N)c(F)c3)cc2)CC1` [Example 47, (R)-4-(3-(3-aminopiperidine-1-carbonyl)-1-(4-(4-hydroxy-4-methylpiperidin-1-yl)phenyl)-1H-pyrazol-5-yl)-2-fluorobenzonitrile 2,2,2-trifluoroacetate], the IC50 in experiment [1] and in experiment [2] (setting [3]) was less than 500 nM in each case.

As for `Cc1ccc(-n2nc(-c3ccc(C#N)c(F)c3)cc2C(=O)N2CCC(N)CC2)cc1` [Example 13, 4-(5-(4-Aminopiperidine-1-carbonyl)-1-(p-tolyl)-1H-pyrazol-3-yl)-2-fluorobenzonitrile], the IC50 in experiment [1] and in experiment [2] (setting [4]) was 1000 to 10000 nM in each case.

For the compound `COc1ccc(Cn2nc(C(=O)N3CCC[C@@H](N)C3)cc2-c2ccc(C#N)c(F)c2)cc1` [Example 33, (R)-4-(3-(3-aminopiperidine-1-carbonyl)-1-(4-methoxybenzyl)-1H-pyrazol-5-yl)-2-fluorobenzonitrile 2,2,2-trifluoroacetate], the half-maximal inhibitory concentration (IC50) in experiment [1] and in experiment [2] (setting [4]) was less than 500 nM throughout.

On to `COC1CCN(c2ccc(-n3nc(C(=O)N4CCC[C@H](N)C4)cc3-c3ccc(C#N)c(F)c3)cc2)CC1` [Example 63, (S)-4-(3-(3-aminopiperidine-1-carbonyl)-1-(4-(4-methoxypiperidin-1-yl)phenyl)-1H-pyrazol-5-yl)-2-fluorobenzonitrile 2,2,2-trifluoroacetate], for which the figures for the IC50 in experiment [1], in experiment [2] (setting [4]) and in experiment [2] (setting [3]) were less than 500 nM, 500 to 1000 nM and less than 500 nM, respectively.

In the case of `Cc1ccc(-n2nc(C(=O)N3CCCC(CN)C3)cc2-c2ccc(C#N)c(F)c2)cc1` (centres unmarked) [Example 7, 4-(3-(3-(Aminomethyl)piperidine-1-carbonyl)-1-(p-tolyl)-1H-pyrazol-5-yl)-2-fluorobenzonitrile], the IC50 in experiment [1] was less than 500 nM; in experiment [2] (setting [4]), 1000 to 10000 nM.

On to `COc1ccc(-n2nc(C(=O)N3CCC[C@H](N)C3)cc2-c2ccc(C#N)c(F)c2)cc1F` [Example 37, (S)-4-(3-(3-aminopiperidine-1-carbonyl)-1-(3-fluoro-4-methoxyphenyl)-1H-pyrazol-5-yl)-2-fluorobenzonitrile], for which the IC50 was 500 to 1000 nM in experiment [1] and 1000 to 10000 nM in experiment [2] (setting [4]).

For the compound `Cn1cc(-c2ccc(-n3nc(C(=O)N4CCC[C@H](N)C4)cc3-c3ccc(C#N)c(F)c3)cc2)cn1` [Example 65, (S)-4-(3-(3-aminopiperidine-1-carbonyl)-1-(4-(1-methyl-1H-pyrazol-4-yl)phenyl)-1H-pyrazol-5-yl)-2-fluorobenzonitrile 2,2,2-trifluoroacetate], the figures for the half-inhibitory concentration (IC50) in experiment [1], in experiment [2] (setting [4]) and in experiment [2] (setting [3]) were less than 500 nM, 500 to 1000 nM and less than 500 nM, respectively.

Consider `CN1CCN(c2ccc(-n3nc(C(=O)N4CCC[C@H](N)C4)cc3-c3ccc(C#N)c(F)c3)cc2)CC1` [Example 59, (S)-4-(3-(3-aminopiperidine-1-carbonyl)-1-(4-(4-methylpiperazin-1-yl)phenyl)-1H-pyrazol-5-yl)-2-fluorobenzonitrile], for which the figures for the IC50 in experiment [1], in experiment [2] (setting [4]) and in experiment [2] (setting [3]) were less than 500 nM, 1000 to 10000 nM and less than 500 nM, respectively.

Regarding `COc1ccc(-n2nc(NC(=O)C3CCNCC3)cc2-c2ccc(C#N)c(F)c2)cc1` [Example 92, N-(5-(4-cyano-3-fluorophenyl)-1-(4-methoxyphenyl)-1H-pyrazol-3-yl)piperidine-4-carboxamide 2,2,2-trifluoroacetate], the IC50 in experiment [1] was 500 to 1000 nM; in experiment [2] (setting [4]) it was 1000 to 10000 nM.

With `N#Cc1ccc(-c2cc(C(=O)N3CCC[C@@H](N)C3)nn2-c2ccc(N3CCC(OCCO)CC3)cc2)cc1F` [Example 45, (R)-4-(3-(3-aminopiperidine-1-carbonyl)-1-(4-(4-(2-hydroxyethoxy)piperidin-1-yl)phenyl)-1H-pyrazol-5-yl)-2-fluorobenzonitrile], the IC50 in experiment [1] and in experiment [2] (setting [3]) was less than 500 nM each time.

As to `N#Cc1ccc(-c2cc(C(=O)N3CCC[C@@H](N)C3)nn2-c2ccc(N3CCC(C#N)CC3)cc2)cc1F` [Example 48, (R)-1-(4-(3-(3-aminopiperidine-1-carbonyl)-5-(4-cyano-3-fluorophenyl)-1H-pyrazol-1-yl)phenyl)piperidine-4-carbonitrile 2,2,2-trifluoroacetate], the 50% inhibitory concentration (IC50) in experiment [1] and in experiment [2] (setting [3]) was less than 500 nM each time.

Regarding `COc1ccc(-n2nc(C(=O)N3CCCC(N)C3)cc2-c2ccc(C#N)c(F)c2)cc1` (centres unmarked) [Example 16, 4-(3-(3-Aminopiperidine-1-carbonyl)-1-(4-methoxyphenyl)-1H-pyrazol-5-yl)-2-fluorobenzonitrile], the IC50 in experiment [1] and in experiment [2] (setting [4]) was less than 500 nM each time.

`COc1ccc(-n2nc(C(=O)N[C@H]3CCC[C@@H](N)C3)cc2-c2ccc(C#N)c(F)c2)cc1` [Example 22, N-((1S,3R)-3-aminocyclohexyl)-5-(4-cyano-3-fluorophenyl)-1-(4-methoxyphenyl)-1H-pyrazole-3-carboxamide]: the 50% inhibitory concentration (IC50) lay in the range of 500 to 1000 nM in experiment [1] and 1000 to 10000 nM in experiment [2] (setting [4]).

As to `COc1ccc(-n2nc(C(=O)N3CCC[C@H](N)C3)cc2-c2ccc(C#N)c(F)c2)cc1` [Example 19, (S)-4-(3-(3-Aminopiperidine-1-carbonyl)-1-(4-methoxyphenyl)-1H-pyrazol-5-yl)-2-fluorobenzonitrile], the IC50 in experiment [1], in experiment [2] (setting [4]) and in experiment [2] (setting [3]) was less than 500 nM in each case.

These data come from patent publication US20260085082A1, “KDM1A INHIBITORS FOR THE TREATMENT OF DISEASE” (Imago Biosciences, Inc., priority 2022, published 2026).
